Experiment: In vitro dissolution test, paddle apparatus (USP type 2), polysorbate 20 in 0.05 M sodium phosphate buffer pH 7.4
Format: physicochemical
Description: The dissolution of the suspensions was tested using a paddle apparatus (USP type 2, Ph. Eur, JP) with a rotation speed of 50 rpm in 900 mL 6.0% w/v polysorbate 20 in 0.05 M sodium phosphate buffer pH 7.4 at 5° C. The sample amount corresponds to 18 mg rilpivirine.
After 360 minutes the temperature was increased to 37° C. and maintained for 60 minutes to simulate an infinity time point. The samples taken after the temperature infinity time points are labelled as 420 minutes.
The quantity of dissolved drug substance was determined by a gradient ultra-high performance liquid chromatographic (UHPLC) method with UV detection at 280 nm.
The dissolution of the three rilpivirine suspensions in water was performed using Paddle Apparatus (USP type 2, Ph.Eur., JP.) at 50 rpm in 900 mL of 6.0% w/v Polysorbate 20 in 0.05 M Sodium Phosphate buffer pH 7.4, at 5.0±0.5° C. An amount of 64.98 mg (=0.06 mL×1.083 g/mL (the theoretical density of the suspension))±5% of homogeneous suspension of rilpivirine (corresponding to 18±0.9 mg of rilpivirine) was added.
The determination of the quantity of rilpivirine present in the dissolution samples is based upon a gradient ultra-high performance liquid chromatographic (UHPLC) method with UV detection at 280 nm.
The dissolution of a suspension of nanoparticulate rilpivirine having a Dv50 of ˜200 nm was tested using the method of Example 1 but with different temperatures of the dissolution medium (37° C., 25° C., 15° C., and 5° C.).
The dissolution of a suspension of nanoparticulate rilpivirine having a Dv50 of 218 nm was tested using the method of Example 1 but with different concentrations of the surfactant (1-6% w/v polysorbate 20).

[1] = Example 4, nanoparticulate suspension Dv50 ~200 nm, 5° C., 6.0% w/v polysorbate 20, pH 7.4
[2] = Example 5, nanoparticulate suspension Dv50 218 nm, 6% polysorbate 20, 5° C., pH 7.4

% dissolved after 6 hours [1]: Over 85%
% dissolved at 5 minutes [1]: less than 30%
time until fully dissolved (Example 4, nanoparticulate suspension Dv50 ~200 nm, 37° C., 6.0% w/v polysorbate 20, pH 7.4, 50 rpm, 900 mL): around 10 minutes
delta % dissolved (difference between lowest and highest % dissolved in the dissolution profile) (Example 5, 6% polysorbate 20 method, suspension Dv50 218 nm, 5° C.): approximately 80%
% dissolved after 360 minutes [2]: more than 85%
initial release, % dissolved [2]: below 20%
Compound: Cc1cc(/C=C/C#N)cc(C)c1Nc1ccnc(Nc2ccc(C#N)cc2)n1 [rilpivirine, 4-[[4-[[4-[(1E)-2-cyanoethenyl]-2,6-dimethylphenyl]amino]-2-pyrimidinyl]amino]benzonitrile]
